Results on twelve compounds are retold here after ChEMBL document CHEMBL6087402, “Design, synthesis, and in vitro and in vivo biological evaluation of dihydroartemisinin derivatives as potent anti-cancer agents with ferroptosis-inducing and apoptosis-activating properties” (Eur J Med Chem, 2025).

In data set [1] the test system is HCT-116. Briefly: Cytotoxicity against human HCT-116 cells assessed as cell viability upto 20 uM. Format: functional, cell-based.
The subject of data set [2] is HCT-116. Briefly: Cytotoxicity against human HCT-116 cells assessed as cell viability at 5 uM. Format: functional, cell-based.
For the next data set, the system named is A549. Briefly: Anti-proliferative activity against human A549 cells incubated for 72 hrs by MTT assay. Format: functional, cell-based. The note with it: A549, 72 h. In general terms: Tetrazolium dyes change colour on reduction, which living cells bring about.
The next data set deals with Bel-7402. Briefly: Anti-proliferative activity against human Bel-7402 cells incubated for 72 hrs by MTT assay. It is filed as functional, cell-based. The note with it: Bel-7402, 72 h.
Data set [3] deals with HCT-116. Briefly: Anti-proliferative activity against human HCT-116 cells incubated for 72 hrs by MTT assay. Format: functional, cell-based. The note with it: HCT-116, 72 h.
The next data set concerns SW-620. Description: Anti-proliferative activity against human SW620 cells incubated for 72 hrs by MTT assay. Format: functional, cell-based. The note with it: SW-620, 72 h.
A short description of data set [4]: Selectivity index, ratio of IC50 for human L02 cells to IC50 for human A549 cells. It is filed as toxicity. The following applies: L02 cells versus A549 cells, read-out: Ratio IC50.
Data set [5] can be described thus: Selectivity index, ratio of IC50 for human L02 cells to IC50 for human Bel-7402 cells. Format: toxicity. The following applies: L02 cells versus Bel-7402 cells, read-out: Ratio IC50.
A short description of data set [6]: Selectivity index, ratio of IC50 for human L02 cells to IC50 for human HCT-116 cells. The following applies: L02 cells versus HCT-116 cells, read-out: Ratio IC50. It is filed as toxicity.
Data set [7] can be described thus: Selectivity index, ratio of IC50 for human L02 cells to IC50 for human SW620 cells. It is filed as toxicity. The following applies: L02 cells versus SW620 cells, read-out: Ratio IC50.
Data set [8] in a line: Anti-proliferative activity against human L02 cells incubated for 72 hrs by MTT assay. It is filed as toxicity, cell-based.
For data set [9], the system named is HCT-116. Briefly: Inhibition of cell proliferation in human HCT-116 cells at 3 uM incubated for 12 hrs by EdU assay (reference value: 48.14 %). Format: functional.
Data set [10] has as its system HCT-116. Description: Cytotoxicity against human HCT-116 cells assessed as cell viability at 10 uM. It is filed as functional, cell-based.

Molecules are shown by their SMILES. Active and inactive are the calls of the source. No cut-off for these calls is given here. Peptide text beside a SMILES is read from it. * marks the point of attachment. Cbz = O=C(OCc1ccccc1)*; CH2F = FC* Where only a bound is given, the exact number is not on record here.

For `CC(C)[C@H](NC(=O)OCc1ccccc1)C(=O)N[C@@H](C)C(=O)N[C@@H](CC(=O)O)C(=O)CF` (Cbz-Val-Ala-Asp-CH2F), the outcome in the data set on HCT-116 [1] was inactive.

As to `CC(=O)N(O)CCCCCNC(=O)CCC(=O)N(O)CCCCCNC(=O)CCC(=O)N(O)CCCCCN`, the result in the data set with HCT-116 [2] was inactive.

For the compound `CCCNC(=O)OC1O[C@@H]2O[C@@]3(C)CC[C@@H]4[C@H](C)CC[C@@H]([C@H]1C)[C@@]24OO3` (stereo not given in full), the IC50 in the data set with A549, in the data set with Bel-7402, in the data set with HCT-116 [3] and in the data set on SW-620 was more than 10 µM each time. Besides, the selectivity ratio was 13.6 in data set [4], less than 1.21 in data set [5], 25.8 in data set [6] and 2.78 in data set [7]. Moreover, in [8], the IC50 (commonly the concentration that inhibits the measured activity by half) at 72 h is 12.1 µM.

Regarding `C[C@H]1[C@@H](O)O[C@@H]2O[C@@]3(C)CC[C@H]4[C@H](C)CC[C@@H]1[C@@]24OO3` [ARTENIMOL], the IC50 in the data set on A549 was 19.4 µM; in the data set on Bel-7402, 43.2 µM; in the data set with HCT-116 [3], 5.1 µM; in the data set on SW-620, 6.61 µM. For the same compound, the selectivity ratio in [4] is 0.43; in data set [5], 0.2; in data set [6], 1.65; in [7], 1.28. Also, the IC50 at 72 h in [8] was 8.43 µM. 3 µM produced 24.5% inhibition in the data set on HCT-116 [9].

Regarding `C[C@@H]1CC[C@H]2[C@@H](C)C(OC(=O)Nc3ccccc3)O[C@@H]3O[C@@]4(C)CC[C@H]1[C@]32OO4` (stereo not given in full), the IC50 with A549 was 4.18 µM; with Bel-7402, 4.62 µM; in the data set on HCT-116 [3], 0.72 µM; in the data set with SW-620, 1.34 µM. Also, the selectivity ratio in data set [4] stood at 3.2; in data set [5], 2.9; in data set [6] it was 18.6; in [7], 9.99. For the same compound, the IC50 at 72 h in data set [8] came out at 13.4 µM.

For `Cc1ccc(NC(=O)OC2O[C@@H]3O[C@@]4(C)CC[C@@H]5[C@H](C)CC[C@@H]([C@H]2C)[C@@]35OO4)cc1` (stereo not given in full), the IC50 in the data set with A549 was 2 µM; with Bel-7402, 8.1 µM; in the data set on HCT-116 [3], 0.59 µM; with SW-620 it was 0.79 µM. Further, the selectivity ratio in data set [4] came out at 7.82; in [5], 1.93; in data set [6], 26.5; in [7], 19.8. In addition, inhibition in data set [8] was half-maximal at 15.6 µM (IC50 at 72 h).

Take `C[C@@H]1CC[C@H]2[C@@H](C)C(OC(=O)Nc3ccc(F)cc3)O[C@@H]3O[C@@]4(C)CC[C@H]1[C@]32OO4` (stereo not given in full): the IC50 in the data set on A549 was found to be 3.2 µM; in the data set with Bel-7402, 8.7 µM; in the data set on HCT-116 [3], 0.51 µM; with SW-620 it was 1.01 µM. Also, the selectivity ratio is 2.85 in data set [4], 1.05 in data set [5], 17.9 in data set [6] and 9.04 in [7]. In data set [8], this compound registered an IC50 at 72 h of 9.13 µM.

As for `CCOC(=O)c1ccc(NC2CCCCC2)c(N)c1`, the result with HCT-116 [10] was inactive.

For `C[C@@H]1CC[C@H]2[C@@H](C)C(OC(=O)CCC(=O)NCCc3c[nH]c4ccc(Cl)cc34)O[C@@H]3O[C@@]4(C)CC[C@H]1[C@]32OO4` (stereo not given in full), the IC50 is 7.25 µM in the data set on A549, more than 10 µM in the data set with Bel-7402, 4.99 µM with HCT-116 [3] and 1.73 µM with SW-620.

As for `CCCCCNC(=O)OC1O[C@@H]2O[C@@]3(C)CC[C@@H]4[C@H](C)CC[C@@H]([C@H]1C)[C@@]24OO3` (stereo not given in full), the IC50 in the data set on A549 was 7.5 µM; in the data set on Bel-7402, more than 10 µM; in the data set on HCT-116 [3] it was 1.82 µM; with SW-620, 1.42 µM.

Consider `COc1ccc(NC(=O)OC2O[C@@H]3O[C@@]4(C)CC[C@@H]5[C@H](C)CC[C@@H]([C@H]2C)[C@@]35OO4)cc1` (stereo not given in full), for which the IC50 in the data set on A549 was 5.8 µM; with Bel-7402, 8.3 µM; in the data set on HCT-116 [3] it was 0.92 µM; in the data set on SW-620, 1.06 µM. Also, the selectivity ratio is 6.38 in [4], 4.46 in [5], 40.2 in data set [6] and 34.9 in data set [7]. Besides, half-maximal inhibition in data set [8] (IC50 at 72 h) was put at 37 µM.

`COc1ccc(-n2cc(C(=O)OC3O[C@@H]4O[C@@]5(C)CC[C@@H]6[C@H](C)CC[C@@H]([C@H]3C)[C@@]46OO5)nn2)cc1OC` (stereo not given in full): the 50% inhibitory concentration (IC50) is more than 10 µM with A549, 8.62 µM with Bel-7402, 3.39 µM in the data set with HCT-116 [3] and 9.61 µM with SW-620.
